Laboratory results published in US8409649B2, “Off-note blocking sensory organic compounds” (Givaudan S.A., priority 2007, dated 2013).
pIC50: −log10 of the molar value. Read-outs that look alike come from different tables or passages of the source.

Columns and labels:
[1] = biological target: T1, human TAS2R44 bitter taste receptor (Homo sapiens, UniProt P59538, L162M); test: TAS2R44 bitter taste receptor assay for IC50 determination (Fluo-4 calcium assay); format: cell-based; details: for pIC50: agonist not stated, read-out: IC50 when tested with the TAS2R44 bitter taste receptor
T1 construct: The TAS2R44 construct contains RSS tag, TAS2R44, and the HSV tag which are fused in frame; expressed in transfected cells; host or cells: HEK293T/Galpha16-gustducin44 cells, stably transfected with pcDNA3.1Zeo-TAS2R44
T1 sequence (P59538 with tags, fused parts or gaps L162M): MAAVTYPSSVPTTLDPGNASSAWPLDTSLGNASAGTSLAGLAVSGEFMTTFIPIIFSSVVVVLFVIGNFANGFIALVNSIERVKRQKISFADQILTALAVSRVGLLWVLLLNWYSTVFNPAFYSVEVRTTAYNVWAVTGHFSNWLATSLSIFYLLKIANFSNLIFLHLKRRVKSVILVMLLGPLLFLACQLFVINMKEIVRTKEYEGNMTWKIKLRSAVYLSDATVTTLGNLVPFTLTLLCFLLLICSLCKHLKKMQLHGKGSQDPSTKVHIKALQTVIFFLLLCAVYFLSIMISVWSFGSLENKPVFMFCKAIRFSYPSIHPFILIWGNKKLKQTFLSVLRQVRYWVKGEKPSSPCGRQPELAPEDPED
Experimental: A receptor screen with concentration-response analysis was performed and from results inhibitory concentration (IC) IC50 values can be calculated by nonlinear regression using the function f(x)=(a−d)/(1+(x/C)^nh)+d; with a=minimum signal, d=maximum signal, nh=hill coefficient, C=IC50. and x=concentration of antagonist.
IC50 is the molar concentration of an antagonist which produces 50% of the maximum possible inhibitory response for that antagonist.
The full length gene of human TAS2R44 was amplified by polymerase chain reaction (PCR) using gene-specific primers that span the entire coding region as described in WO 2004/029087.
The TAS2R44 cDNA was subcloned into an expression cassette based on either of the following plasmids/expression vectors: pcDNA3.1Zeo (Invitrogen). These vectors contain within their multiple cloning sites the nucleotide sequence coding for the first 45 amino acids of the rat somatostatin receptor subtype 3 (RSS tag) to facilitate cell surface targeting of the transgene (SEQ ID #4) and the nucleotide sequence coding for the herpes simplex virus (HSV) glycoprotein D epitope (HSV epitope in aminoterminal to carboxyterminal direction, HSV tag). (SEQ ID #3) for facilitating immunocytochemical detection.
The TAS2R44 construct contains RSS tag, TAS2R44, and the HSV tag which are fused in frame to allow translation into the receptor protein and the resulting receptor cDNA. This transfected expression vector is called pcDNA3.1Zeo-TAS2R44 (SEQ ID #1) and allows for expression of the TAS2R44 protein (SEQ ID #2).
A cell line that stably expresses the human bitter taste receptor (TAS2R44) was generated by transfecting pcDNA3.1Zeo-TAS2R44 into HEK293T/Gα16-gustducin 44 cells (both formed as described in under 1) above. The host cell line HEK-293T is commercially available from the American […] (catalog #CRL-1573).
Fluo-4 AM (Invitrogen) is a fluorescent indicator of intracellular calcium dynamics (change in concentration) and allows monitoring changes in the calcium concentration, particularly an increase in response to receptor activation occurring after agonist exposure.
At day 0, the HEK293T cell line stably expressing Gα16-gustducin44 and TAS2R44 formed as described under 2) was seeded in antibiotic-free growth medium (standard DMEM with 10% (v/v) heat-inactivated fetal bovine serum, 2 mM L-glutamine […]) into black wall/clear bottom 96-well plates, coated with poly(ethylenimine) (0.005% v/v) at a concentration of 15,000 cells per well and incubated for 48 hours in humidified atmosphere (37° C., 5% CO2).
At the time of the assay, the growth medium was discarded and the cells were further incubated in a humidified atmosphere (37° C., 5% CO2) for 1 hour with 50 μl of loading buffer consisting of 1.5 μM Fluo-4 AM and 2.5 μM probenicid (Sigma-Aldrich) in DMEM.
Afterwards, the 96-well plate was washed 5 times with 200 μl of assay buffer (130 mM NaCl, 5 mM KCl, 10 mM HEPES, 2 mM CaCl2, and 5 mM dextrose, pH 7.4) per well, using an automated plate washer (BioTek). The plate was further incubated for 30 minutes at room temperature in the dark to allow for complete de-esterification of the Fluo-4. Afterwards the plate was washed 5 times with 200 μl of assay buffer per well, and reconstituted with 180 μl of assay buffer per well.
For assay reading, the plate was placed in a Fluorometric Imaging Plate Reader (FLIPR) (FLIPR-TETRA™, Molecular Devices), and receptor activation was initiated by addition of 20 μl of a tenfold concentrated agonist stock solution (to give the desired agonist end concentration when added to the 180 microliter assay buffer volume), which was prepared in assay buffer.
Fluorescence was continuously monitored for 20 seconds to give a signal baseline (averaged to give F0) prior to agonist addition and for 120 seconds after agonist addition. […]

[2] = test system: panel of bitter sensitive individuals; test: Sensory evaluation, forced choice test in water with sucralose; format: in vivo; details: 13 ppm in water with sucralose 1 mM, 3 mM, 7 mM
Experimental: The bitter blocker (13 ppm) was tested in water with sucralose in concentrations of 1 mM, 3 mM, and 7 mM by a panel of bitter sensitive individuals (15) in two replications per each concentration. The samples were compared to negative controls without bitter blocker and panelists were instructed to choose the less bitter sample in a forced choice test.

CC1(C(=O)O)CC1CC1CC2CC2(C)C1(C)C (stereo not shown) [1-methyl-2-((1,2,2-trimethylbicyclo[3.1.0]hexan-3-yl)methyl)cyclopropanecarboxylic acid]
pIC50 [1]: 4.70 to 7.00

CC1CCC(CC(=O)O)CC1C (stereo not shown) [2-(3,4-dimethylcyclohexyl)acetic acid]
pIC50 [1]: 4.70 to 7.00

CC1=CCCC(C)(C)C1CCC(C)C(=O)O (stereo not shown) [2-methyl-4-(2,6,6-trimethylcyclohex-2-enyl)butanoic acid]
pIC50 [1]: 4.70 to 7.00

CC1CCCC(C)(C)C1CCC(=O)O (stereo not shown) [3-(2,2,6-trimethylcyclohexyl)propanoic acid]
pIC50 [1]: 4.70 to 7.00

CC1=CCC(C/C=C/C(=O)O)C1(C)C (stereo not shown) [4-(2,2,3-trimethylcyclopent-3-enyl)but-2-enoic acid]
pIC50 [1]: 4.70 to 7.00 | IC50 ([1]; sucralose (50 mM) as agonist, same range as example 4): within the same range | effect on bitterness vs negative control without bitter blocker [2]: significantly reduce bitterness | panelists that chose the sample with bitter blocker as less bitter ([2]; forced choice, 15 individuals, two replications): 22/30

CC1CCC(CCCC(=O)O)C1(C)C (stereo not shown) [4-(2,2,3-trimethylcyclopentyl)butanoic acid]
pIC50 [1]: 4.70 to 7.00

CC1CCCC(C)(C)C1CCCC(=O)O (stereo not shown) [4-(2,2,6-trimethylcyclohexyl)butanoic acid]
pIC50 [1]: 4.70 to 7.00
